Holding throughout (test): relative viability (nuclei count vs DMSO), 5 days (fraction); higher = more cells survive
Compound in assay [1]: CC1=C(N=C(N=C1N)[C@H](CC(=O)N)NC[C@@H](C(=O)N)N)C(=O)N[C@@H]([C@H](C2=CN=CN2)OC3C(C(C(C(O3)CO)O)O)OC4C(C(C(C(O4)CO)O)OC(=O)N)O)C(=O)N[C@H](C)[C@H]([C@H](C)C(=O)N[C@@H]([C@@H](C)O)C(=O)NCCC5=NC(=CS5)C6=NC(=CS6)C(=O)NCCC[S+](C)C)O [Bleomycin] + Cc1nc(Nc2ncc(C(=O)Nc3c(C)cccc3Cl)s2)cc(N2CCN(CCO)CC2)n1 [Dasatinib] (partner 0.075 µM)
To be noted: main component drawn. The method, boiled down: (§1)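 Relative viability equals treated-well nuclei counts divided by vehicle-well nuclei counts. Counts came from 4× images of lung cancer cell lines grown in 1536-well plates for 5 days after pin-tool dosing on the day after seeding. Dosing used one drug alone or a fixed anchor-drug dose plus five library-drug doses (not always all listed) in √10 steps, and values are medians of duplicate plates.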

Compound in assay [2]: COc1cc([C@@H]2c3cc4c(cc3[C@@H](O[C@@H]3O[C@@H]5CO[C@@H](C)O[C@H]5[C@H](O)[C@H]3O)[C@H]3COC(=O)[C@H]23)OCO4)cc(OC)c1O [Etoposide] + Nc1nc2[nH]cc(CCc3ccc(C(=O)N[C@@H](CCC(=O)O)C(=O)O)cc3)c2c(=O)[nH]1 [Pemetrexed] (partner 0.2 µM)
In short, it runs like this: as §1

Compound in assay [3]: COc1cc([C@@H]2c3cc4c(cc3[C@@H](O[C@@H]3O[C@@H]5CO[C@@H](C)O[C@H]5[C@H](O)[C@H]3O)[C@H]3COC(=O)[C@H]23)OCO4)cc(OC)c1O [Etoposide] + CC(C)C[C@H](NC(=O)[C@H](Cc1ccccc1)NC(=O)c1cnccn1)B(O)O [Bortezomib] (partner 0.002 µM)
In short, it runs like this:
as §1

Compound in assay [4]: COc1cc([C@@H]2c3cc4c(cc3[C@@H](O[C@@H]3O[C@@H]5CO[C@@H](C)O[C@H]5[C@H](O)[C@H]3O)[C@H]3COC(=O)[C@H]23)OCO4)cc(OC)c1O [Etoposide] + Cc1cc(Nc2cc(N3CCN(C)CC3)nc(Sc3ccc(NC(=O)C4CC4)cc3)n2)n[nH]1 [Tozasertib] (partner 0.1 µM)
In short, it runs like this:
as §1

Results on 6 cell lines are retold here after the supplement of paper PMC10307832.

Consider NCI-H2085, for which the relative viability was found to be 0.262 in assay [1] (first compound 0.01 µM); 0.221 in assay [1] (first compound 0.03162 µM); 0.231 in assay [1] (first compound 0.1 µM); 0.212 in assay [1] (first compound 0.3162 µM); 0.209 in assay [1] (first compound 1 µM); 0.769 in assay [2] (first compound 0.01 µM). Further, the relative viability was found to be 0.95 in assay [2] (first compound 0.03162 µM); 0.803 in assay [2] (first compound 0.1 µM); 0.907 in assay [2] (first compound 0.3162 µM); 0.378 in assay [2] (first compound 1 µM); 1.08 in assay [3] (first compound 0.01 µM); 1.08 in assay [3] (first compound 0.03162 µM). For the same cell line, the relative viability was 0.953 in assay [3] (first compound 0.1 µM); 0.674 in assay [3] (first compound 0.3162 µM); 0.354 in assay [3] (first compound 1 µM); 0.783 in assay [4] (first compound 0.01 µM); 0.772 in assay [4] (first compound 0.03162 µM); 0.762 in assay [4] (first compound 0.1 µM). For the same cell line, the relative viability was found to be 0.727 in assay [4] (first compound 0.3162 µM) and 0.478 in assay [4] (first compound 1 µM).

With NCI-H2087, the relative viability in assay [1] (first compound 0.03162 µM) was 0.852; in assay [1] (first compound 0.1 µM), 0.668; in assay [1] (first compound 0.3162 µM), 0.131; in assay [1] (first compound 1 µM), 0.13; in assay [2] (first compound 0.01 µM) it was 0.641; in assay [2] (first compound 0.03162 µM), 0.723. For the same cell line, the relative viability in assay [2] (first compound 0.1 µM) was determined as 0.703; in assay [2] (first compound 0.3162 µM), 0.582; in assay [2] (first compound 1 µM), 0.374; in assay [3] (first compound 0.03162 µM) it was 0.888; in assay [3] (first compound 0.1 µM) it was 0.864; in assay [3] (first compound 0.3162 µM), 0.641. Also, the relative viability in assay [3] (first compound 1 µM) stood at 0.302; in assay [4] (first compound 0.01 µM), 0.214; in assay [4] (first compound 0.03162 µM) it was 0.248; in assay [4] (first compound 0.1 µM), 0.233; in assay [4] (first compound 0.3162 µM) it was 0.205; in assay [4] (first compound 1 µM) it was 0.166.

Consider NCI-H2126, for which the relative viability was found to be 0.596 in assay [1] (first compound 0.01 µM); 0.619 in assay [1] (first compound 0.03162 µM); 0.665 in assay [1] (first compound 0.1 µM); 0.357 in assay [1] (first compound 0.3162 µM); 0.276 in assay [1] (first compound 1 µM); 0.633 in assay [2] (first compound 0.01 µM). In addition, the relative viability stood at 0.878 in assay [2] (first compound 0.03162 µM); 0.591 in assay [2] (first compound 0.1 µM); 0.677 in assay [2] (first compound 0.3162 µM); 0.461 in assay [2] (first compound 1 µM); 1.19 in assay [3] (first compound 0.01 µM); 1.09 in assay [3] (first compound 0.03162 µM). In addition, the relative viability in assay [3] (first compound 0.1 µM) came to 0.801; in assay [3] (first compound 0.3162 µM) it was 1; in assay [3] (first compound 1 µM) it was 0.659; in assay [4] (first compound 0.01 µM) it was 0.739; in assay [4] (first compound 0.03162 µM) it was 0.854; in assay [4] (first compound 0.1 µM) it was 0.632. The relative viability in assay [4] (first compound 0.3162 µM) was 0.63; in assay [4] (first compound 1 µM), 0.254.

For NCI-H2228, the relative viability stood at 0.45 in assay [1] (first compound 0.01 µM); 0.495 in assay [1] (first compound 0.03162 µM); 0.618 in assay [1] (first compound 0.1 µM); 0.342 in assay [1] (first compound 0.3162 µM); 0.172 in assay [1] (first compound 1 µM); 0.375 in assay [2] (first compound 0.01 µM). Also, the relative viability came out at 0.358 in assay [2] (first compound 0.03162 µM); 0.355 in assay [2] (first compound 0.1 µM); 0.299 in assay [2] (first compound 0.3162 µM); 0.181 in assay [2] (first compound 1 µM); 1 in assay [3] (first compound 0.01 µM); 1.17 in assay [3] (first compound 0.03162 µM). Further, the relative viability worked out at 0.731 in assay [3] (first compound 0.1 µM); 0.717 in assay [3] (first compound 0.3162 µM); 0.22 in assay [3] (first compound 1 µM); 0.287 in assay [4] (first compound 0.01 µM); 0.191 in assay [4] (first compound 0.03162 µM); 0.247 in assay [4] (first compound 0.1 µM). In addition, the relative viability in assay [4] (first compound 0.3162 µM) was 0.169; in assay [4] (first compound 1 µM), 0.117.

Consider NCI-H2347, for which the relative viability was 0.258 in assay [1] (first compound 0.01 µM); 0.295 in assay [1] (first compound 0.03162 µM); 0.266 in assay [1] (first compound 0.1 µM); 0.169 in assay [1] (first compound 0.3162 µM); 0.23 in assay [1] (first compound 1 µM); 0.454 in assay [2] (first compound 0.01 µM). Besides, the relative viability turned out to be 0.487 in assay [2] (first compound 0.03162 µM); 0.401 in assay [2] (first compound 0.1 µM); 0.386 in assay [2] (first compound 0.3162 µM); 0.383 in assay [2] (first compound 1 µM); 1.06 in assay [3] (first compound 0.01 µM); 1.32 in assay [3] (first compound 0.03162 µM). The relative viability in assay [3] (first compound 0.1 µM) was 0.716; in assay [3] (first compound 0.3162 µM), 0.572; in assay [3] (first compound 1 µM) it was 0.515; in assay [4] (first compound 0.01 µM), 0.518; in assay [4] (first compound 0.03162 µM), 0.554; in assay [4] (first compound 0.1 µM) it was 0.419. Further, the relative viability was determined as 0.433 in assay [4] (first compound 0.3162 µM) and 0.291 in assay [4] (first compound 1 µM).

For NCI-H2405, the relative viability in assay [1] (first compound 0.01 µM) was determined as 0.206; in assay [1] (first compound 0.03162 µM) it was 0.212; in assay [1] (first compound 0.1 µM), 0.208; in assay [1] (first compound 0.3162 µM), 0.181; in assay [1] (first compound 1 µM) it was 0.166; in assay [2] (first compound 0.01 µM), 1.07. Moreover, the relative viability was found to be 1.14 in assay [2] (first compound 0.03162 µM); 0.846 in assay [2] (first compound 0.1 µM); 0.935 in assay [2] (first compound 0.3162 µM); 0.365 in assay [2] (first compound 1 µM); 0.987 in assay [3] (first compound 0.01 µM); 1.05 in assay [3] (first compound 0.03162 µM). Further, the relative viability in assay [3] (first compound 0.1 µM) came out at 0.753; in assay [3] (first compound 0.3162 µM), 0.531; in assay [3] (first compound 1 µM) it was 0.746; in assay [4] (first compound 0.01 µM) it was 0.745; in assay [4] (first compound 0.03162 µM) it was 0.77; in assay [4] (first compound 0.1 µM), 0.86. Besides, the figures for the relative viability in assay [4] (first compound 0.3162 µM) and in assay [4] (first compound 1 µM) were 0.576 and 0.294, respectively.
